Results as given in patent US20250382556A1, “MODULATION OF THE BRANCHED-CHAIN METABOLITE CONTENT OF FRUITS AND VEGETABLES” (BOARD OF TRUSTEES OF MICHIGAN STATE UNIVERSITY, priority 2024, published 2025).

Tested on: flowering quince peel
Assay: Free amino acid content of flowering quince peel via UPLC-MS/MS after AHAS inhibitor treatment
Assay type: in vivo, Chaenomeles x superba
Design: key to free asparagine content compared to control / free aspartate content compared to control / free cysteine content compared to control / free glutamate content compared to control / free glutamine content compared to control / free glycine content compared to control / free lysine content compared to control / free phenylalanine content compared to control / free threonine content compared to control / free tryptophan content compared to control / free tyrosine content compared to control / free alanine content compared to control / free arginine content compared to control: —: Dash indicates no significant difference between treatments
Procedure: Whole apple fruit, freshly harvested and at an early stage of ripening (‘ripening’), were held at room temperature (22° C.) and rubbed daily with 3 mL of a freshly made 1mM solution of the inhibitor rimsulfuron (N-((4,6-dimethoxypyrimidin-2-yl)aminocarbonyl)-3-(ethylsulfonyl)-2-pyridinesulfonamide, made from DuPont MATRIX® SG, 25% w/w active ingredient; 0.1% Tween 20) or water solution containing 0.1% Tween 20 before preparation with further treatments. Flowering quince fruit were smaller than the apple fruit and had 2 mL of the control and treatment solutions applied daily at 22° C. ‘Gala’, ‘Empire’, and ‘Jonagold’ apple fruit were treated for four, nine, and seven days before further preparation, respectively. Flowering quince fruit were treated for six days before analysis. Headspace volatile emissions were monitored for three or four representative fruits during the incubation/treatment period to determine appropriate times for further treatments. During method testing, 1 mM solutions of the imidazolinone imazamox was also assessed with apple fruit (2-[4,5-dihydro-4-methyl-4-(1-methylethyl)-5-oxo-1H-imidazol-2-yl]-5-(methoxymethyl)-3-pyridinecarboxylic acid, made from RAPTOR®, 12.1% w/w active ingredient; 0.1% Tween 20).
After volatile analysis, apple peel disks, collected peel of flowering quince, and ‘Valery’ pulp section samples were held at −80° C. for further amino acid analysis.
Frozen samples were ground to a powder in liquid nitrogen-chilled mortar and pestles. About 500 mg of tissue was vortexed for 10 sec in 2 mL of room temperature (22° C.) extraction solution (1:1:1 water:acetonitrile:ethanol, v/v/v) spiked with 2 nmoles of U-^13C,^15N labeled amino acids (MilliporeSigma) as internal standards and heated for 15 min in a 65° C. water bath. Extracts were briefly chilled on ice before centrifugation at 4400×g for 15 min at 4° C. The supernatant was filtered by centrifugation (0.2 μm nylon centrifugal filter; Costar, Corning) at 21000×g for 5 min at room temperature. 10 μL of the filtrate was transferred to an autosampler vial and diluted 100-fold with 990 μL of 10.1 mM perfluorohexanoic acid (PFHA) spiked with […] of internal standard. Thus the final concentration of internal standard was ˜2 μM.
An amino acid standard series was prepared from a premade mixture (MilliporeSigma, AAS18) that contained equal molar amounts of cystine and all 20 proteinogenic amino acids save for tryptophan, asparagine, glutamine, and cysteine. An equal molar mixture of tryptophan, asparagine, glutamine, and cysteine was subsequently prepared. To avoid dilution errors or artefacts from differing buffers, these amino acid stocks were aliquoted and desiccated such that a five-part standard series ranging from 250 μM to 25 nM would be produced upon resuscitation with 10 μL of spiked extraction buffer and 990 μL spiked PFHA solution.
Samples and amino acids were held overnight at −20° C. before analysis. Amino acids were analyzed with a Xevo TQ-S Micro UPLC (H-Class)-MS/MS (Waters) at the Michigan State University Mass Spectrometry and Metabolomics Core. Conditions were as follows. HPLC column: Acquirt UPLC HSS T3, 2.1×100 mm, 1.7 μm particle size (Waters), with a 0.2 μm pre-column filter (Waters). Mobile phase: A) 10 mM PFHA in water, B) acetonitrile. LC gradient: linear gradient, slope setting=6, flow rate=0.3 mL·min^−1, step 1) 0 min, 100% A, 0% B, 2) 1 min, 100% A, 0% B, 3) 8 min, 35% A, 65% B, 4) 8.01 min, 10% A, 90% B, 5) 9 min, 10% A, 90% B, 6) 9.01 min, 100% A, 0% B, 7) 13 min, 100% A, 0% B. Column temp: 40° C. Autosampler temp: 10° C. Injection volume: 10 μL. Tune parameters: electrospray ionization, standard ESI probe, capillary voltage=+1.0 kV, source temp=120° C., desolvation temp=350° C., desolvation gas=800 L·hr^−1, cone gas=40 L·hr^−1. MS collection was split into three phases and were adjusted after checking the retention time of several samples; however proline was missed for apple and flowering quince samples. […]

[1] = Dr. Banks Pink flowering quince peel, 1 mM daily, six days

Structure (SMILES): CCS(=O)(=O)c1cccnc1S(=O)(=O)NC(=O)Nc1nc(OC)cc(OC)n1 [rimsulfuron, N-((4,6-dimethoxypyrimidin-2-yl)aminocarbonyl)-3-(ethylsulfonyl)-2-pyridinesulfonamide]
- free alanine content compared to control [1]: —
- free arginine content compared to control [1]: —
- free asparagine content compared to control [1]: —
- free aspartate content compared to control [1]: —
- free cysteine content compared to control [1]: —
- free glutamate content compared to control [1]: —
- free glutamine content compared to control [1]: —
- free glycine content compared to control [1]: —
- free histidine content compared to control [1]: 166.5 ± 20.1%
- free isoleucine content compared to control [1]: 51.3 ± 9.1%
- free leucine content compared to control [1]: 81.9 ± 5.4%
- free lysine content compared to control [1]: —
- free methionine content compared to control [1]: 245.3 ± 38.5%
- free phenylalanine content compared to control [1]: —
- free serine content compared to control [1]: 302.1 ± 32.0%
- free threonine content compared to control [1]: —
- free tryptophan content compared to control [1]: —
- free tyrosine content compared to control [1]: —
- free valine content compared to control [1]: 28.1 ± 3.8%
- leucine content reduced (flowering quince peel tissue): 18.1%
- total content of free amino acids (flowering quince peel tissue): not significantly altered
- valine and isoleucine collectively reduced (flowering quince peel tissue): 64.2%
